{
  "source": "patent US9340590B2",
  "about": "(priority 2011, dated 2016)",
  "experiment_in_all_cases": "cell-based",
  "key": {"hNav1.7": {"biological_target": "hNav1.7 (Homo sapiens, UniProt Q15858)", "sequence (Q15858 whole entry, looked up)": "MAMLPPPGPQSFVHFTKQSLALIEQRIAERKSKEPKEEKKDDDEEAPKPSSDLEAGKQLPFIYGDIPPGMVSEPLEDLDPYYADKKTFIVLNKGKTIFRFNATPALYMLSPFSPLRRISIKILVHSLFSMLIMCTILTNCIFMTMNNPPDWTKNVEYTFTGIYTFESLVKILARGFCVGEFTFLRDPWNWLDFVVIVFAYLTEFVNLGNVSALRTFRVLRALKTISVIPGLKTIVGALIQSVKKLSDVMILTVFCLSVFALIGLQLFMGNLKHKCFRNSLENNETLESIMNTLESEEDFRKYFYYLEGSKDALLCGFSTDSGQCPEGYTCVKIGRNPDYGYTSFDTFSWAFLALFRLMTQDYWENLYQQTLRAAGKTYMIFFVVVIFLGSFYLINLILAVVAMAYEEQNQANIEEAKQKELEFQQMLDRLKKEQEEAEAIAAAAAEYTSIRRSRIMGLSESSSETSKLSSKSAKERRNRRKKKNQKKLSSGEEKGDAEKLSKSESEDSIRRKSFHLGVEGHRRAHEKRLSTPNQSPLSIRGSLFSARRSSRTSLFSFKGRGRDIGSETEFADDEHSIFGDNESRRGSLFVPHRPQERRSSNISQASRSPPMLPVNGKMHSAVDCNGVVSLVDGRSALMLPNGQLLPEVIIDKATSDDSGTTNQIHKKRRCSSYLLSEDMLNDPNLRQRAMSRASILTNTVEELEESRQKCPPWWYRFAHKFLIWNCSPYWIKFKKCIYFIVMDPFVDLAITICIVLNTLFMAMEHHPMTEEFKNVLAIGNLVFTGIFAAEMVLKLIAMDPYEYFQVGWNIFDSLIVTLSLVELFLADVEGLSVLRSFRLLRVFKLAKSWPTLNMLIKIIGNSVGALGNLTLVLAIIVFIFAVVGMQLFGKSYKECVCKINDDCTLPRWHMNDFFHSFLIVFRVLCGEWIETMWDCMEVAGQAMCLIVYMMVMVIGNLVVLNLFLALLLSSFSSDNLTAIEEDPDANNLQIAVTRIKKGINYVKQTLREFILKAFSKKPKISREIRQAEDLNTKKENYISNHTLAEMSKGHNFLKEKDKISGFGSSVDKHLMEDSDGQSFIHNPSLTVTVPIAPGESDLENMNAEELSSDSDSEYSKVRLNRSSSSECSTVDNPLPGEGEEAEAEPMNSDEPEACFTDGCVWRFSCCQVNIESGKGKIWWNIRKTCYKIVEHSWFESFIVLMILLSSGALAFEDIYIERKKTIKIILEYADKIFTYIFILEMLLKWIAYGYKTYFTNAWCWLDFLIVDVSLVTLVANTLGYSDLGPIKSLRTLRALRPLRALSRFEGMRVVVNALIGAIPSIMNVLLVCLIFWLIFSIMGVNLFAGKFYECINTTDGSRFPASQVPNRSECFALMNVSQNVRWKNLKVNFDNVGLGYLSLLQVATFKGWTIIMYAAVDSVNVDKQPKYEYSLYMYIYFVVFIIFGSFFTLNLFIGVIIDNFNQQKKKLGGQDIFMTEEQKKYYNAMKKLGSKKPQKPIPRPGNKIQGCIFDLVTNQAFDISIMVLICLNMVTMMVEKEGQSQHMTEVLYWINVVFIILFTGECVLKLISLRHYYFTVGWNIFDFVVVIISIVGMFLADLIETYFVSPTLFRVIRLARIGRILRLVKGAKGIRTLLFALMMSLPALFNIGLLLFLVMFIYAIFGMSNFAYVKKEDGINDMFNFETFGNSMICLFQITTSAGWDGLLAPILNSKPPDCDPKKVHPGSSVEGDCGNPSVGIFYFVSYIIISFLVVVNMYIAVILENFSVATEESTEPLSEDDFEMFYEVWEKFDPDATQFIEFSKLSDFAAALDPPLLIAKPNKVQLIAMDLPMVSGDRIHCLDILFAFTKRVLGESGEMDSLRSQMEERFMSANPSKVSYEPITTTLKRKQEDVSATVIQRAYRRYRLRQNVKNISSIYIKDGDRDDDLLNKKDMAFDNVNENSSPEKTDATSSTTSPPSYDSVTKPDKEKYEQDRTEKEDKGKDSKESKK", "format": "cell-based"}, "hNav1.5": {"biological_target": "hNav1.5 (Homo sapiens, UniProt Q14524)", "settings": "IonWorks Quattro, read-out: IWQ Use Nav1.5"}, "hNav1.3": {"biological_target": "hNav1.3 (Homo sapiens, UniProt Q9NY46)", "sequence (Q9NY46 whole entry, looked up)": "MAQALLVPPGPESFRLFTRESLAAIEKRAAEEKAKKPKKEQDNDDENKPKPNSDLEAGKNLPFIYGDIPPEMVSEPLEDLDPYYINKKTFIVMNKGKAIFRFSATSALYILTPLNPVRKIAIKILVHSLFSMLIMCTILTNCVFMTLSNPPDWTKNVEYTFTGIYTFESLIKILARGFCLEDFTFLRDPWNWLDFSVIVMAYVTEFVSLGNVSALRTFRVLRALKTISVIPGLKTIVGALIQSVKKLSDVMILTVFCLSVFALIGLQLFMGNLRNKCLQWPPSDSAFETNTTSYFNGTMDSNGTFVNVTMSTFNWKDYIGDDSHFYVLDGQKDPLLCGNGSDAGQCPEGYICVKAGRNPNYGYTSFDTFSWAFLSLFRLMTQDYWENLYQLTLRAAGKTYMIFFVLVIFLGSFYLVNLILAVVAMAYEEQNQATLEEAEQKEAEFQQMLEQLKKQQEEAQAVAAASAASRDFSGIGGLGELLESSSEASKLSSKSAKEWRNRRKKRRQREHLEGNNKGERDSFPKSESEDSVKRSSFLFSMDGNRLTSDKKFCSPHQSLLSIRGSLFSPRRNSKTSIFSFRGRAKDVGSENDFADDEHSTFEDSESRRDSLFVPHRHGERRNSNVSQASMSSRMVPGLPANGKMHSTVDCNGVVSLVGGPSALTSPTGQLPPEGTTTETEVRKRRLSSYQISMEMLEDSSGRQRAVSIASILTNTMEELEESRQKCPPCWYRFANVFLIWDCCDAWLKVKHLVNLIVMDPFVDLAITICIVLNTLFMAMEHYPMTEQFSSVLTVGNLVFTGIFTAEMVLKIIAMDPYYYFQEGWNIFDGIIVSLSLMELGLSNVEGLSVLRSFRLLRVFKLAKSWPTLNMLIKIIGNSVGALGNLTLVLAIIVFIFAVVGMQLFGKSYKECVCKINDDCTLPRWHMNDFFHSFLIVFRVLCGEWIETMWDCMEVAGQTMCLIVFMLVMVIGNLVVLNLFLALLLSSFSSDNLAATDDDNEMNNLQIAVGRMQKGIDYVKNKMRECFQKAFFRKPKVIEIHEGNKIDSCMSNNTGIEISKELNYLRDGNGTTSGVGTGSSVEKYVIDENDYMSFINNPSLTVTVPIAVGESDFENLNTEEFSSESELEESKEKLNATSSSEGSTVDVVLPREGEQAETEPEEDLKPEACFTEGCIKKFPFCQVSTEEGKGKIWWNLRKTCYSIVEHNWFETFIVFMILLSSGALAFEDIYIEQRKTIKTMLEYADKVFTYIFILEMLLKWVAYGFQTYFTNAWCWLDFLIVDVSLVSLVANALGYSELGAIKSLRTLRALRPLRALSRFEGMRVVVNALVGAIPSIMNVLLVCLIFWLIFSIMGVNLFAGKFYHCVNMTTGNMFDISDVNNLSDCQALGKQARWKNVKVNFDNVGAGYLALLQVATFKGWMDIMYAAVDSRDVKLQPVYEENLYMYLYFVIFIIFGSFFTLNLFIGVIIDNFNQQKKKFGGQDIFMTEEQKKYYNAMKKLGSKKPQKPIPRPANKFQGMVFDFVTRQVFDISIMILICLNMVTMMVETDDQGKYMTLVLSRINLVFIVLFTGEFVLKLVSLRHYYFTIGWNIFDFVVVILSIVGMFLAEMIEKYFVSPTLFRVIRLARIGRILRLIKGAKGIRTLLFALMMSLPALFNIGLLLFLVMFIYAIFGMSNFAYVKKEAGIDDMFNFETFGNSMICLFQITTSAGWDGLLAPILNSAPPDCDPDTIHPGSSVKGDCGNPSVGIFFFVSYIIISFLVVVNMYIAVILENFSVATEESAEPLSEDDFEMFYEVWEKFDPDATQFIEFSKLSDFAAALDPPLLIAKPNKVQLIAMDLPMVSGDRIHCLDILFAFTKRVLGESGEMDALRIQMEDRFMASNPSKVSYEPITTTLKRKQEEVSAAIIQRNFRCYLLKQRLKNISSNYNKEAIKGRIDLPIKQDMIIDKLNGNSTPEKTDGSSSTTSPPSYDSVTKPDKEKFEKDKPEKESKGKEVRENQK", "settings": "IonWorks Quattro, read-out: IWQ Use Nav1.3"}, "[1]": {"settings": "Table 25, IonWorks Quattro, use, […], read-out: IWQ Use Nav1.7"}, "[2]": {"settings": "IonWorks Quattro, use-dependent, […], read-out: IWQ Use Nav1.7"}},
  "note": "Like-named read-outs stand apart in the source and are kept apart here. Positions of bridges follow the written chain, without caps; N, C: chain ends. Non-standard residues stand in square brackets, D forms with d. Residues, ends and D or L forms follow the SMILES beside them. 1Nal = N[C@@H](Cc1cccc2ccccc12)C(=O)O",
  "data": [
    {"smiles": "CC[C@H](C)[C@@H]1NC(=O)[C@@H]2CSSC[C@@H]3NC(=O)[C@H](C(C)C)NC(=O)[C@H](CC(C)C)NC(=O)[C@H](CC(N)=O)NC(=O)[C@@H]4CCCN4C(=O)[C@H](CCCNC(=N)N)NC(=O)[C@H](CSSC[C@H](NC(=O)[C@@H](N)CC(=O)O)C(=O)N[C@@H](CC(C)C)C(=O)NCC(=O)N[C@@H](Cc4ccccc4)C(=O)N[C@@H](CCSC)C(=O)N[C@@H](CCCNC(=N)N)C(=O)N[C@@H](CCCCN)C(=O)N2)NC(=O)[C@H](CSSC[C@@H](C(=O)N[C@@H](CCCNC(=N)N)C(=O)N[C@@H](Cc2ccc(O)cc2)C(=O)N[C@H](C(=O)N[C@@H](Cc2ccccc2)C(N)=O)C(C)C)NC(=O)[C@H](Cc2c[nH]c4ccccc24)NC(=O)[C@H](CCCCN)NC(=O)[C@H](Cc2cnc[nH]2)NC(=O)[C@H]([C@@H](C)O)NC(=O)[C@H](CCCNC(=N)N)NC(=O)[C@H](CO)NC3=O)NC(=O)[C@H](CCCCN)NC(=O)[C@H](CC(=O)O)NC(=O)[C@H](CC(N)=O)NC(=O)[C@H](CC(=O)O)NC(=O)[C@@H]2CCCN2C1=O", "note": "[compound 73] (H-DCLGFMRKCIPDNDKCCRPNLVCSRTHKWCRYVF-NH2; disulfide 2-17, 9-23, 16-30)", "values": [
      {"measurement": "IC50", "setting": "hNav1.7; [1]", "result": 1.36, "unit": "µM"},
      {"measurement": "IC50", "setting": "hNav1.5; Table 25, use, […]", "result": 9.17, "unit": "µM"},
      {"measurement": "IC50", "setting": "hNav1.3; Table 25, use, […]", "result": 4.95, "unit": "µM"}
    ]},
    {"smiles": "CC[C@H](C)[C@@H]1NC(=O)[C@@H]2CSSC[C@@H]3NC(=O)[C@H](C(C)C)NC(=O)[C@H](CC(C)C)NC(=O)[C@H](CC(N)=O)NC(=O)[C@@H]4CCCN4C(=O)[C@H](CCCNC(=N)N)NC(=O)[C@H](CSSC[C@H](NC(=O)[C@@H](N)CC(=O)O)C(=O)N[C@@H](CC(C)C)C(=O)NCC(=O)N[C@@H](Cc4ccccc4)C(=O)N[C@@H](CCSC)C(=O)N[C@@H](CCCNC(=N)N)C(=O)N[C@@H](CCCCN)C(=O)N2)NC(=O)[C@H](CSSC[C@@H](C(=O)N[C@@H](CCCCN)C(=O)N[C@@H](Cc2ccc(O)cc2)C(=O)N[C@H](C(=O)N[C@@H](CCCNC(=N)N)C(N)=O)C(C)C)NC(=O)[C@H](Cc2c[nH]c4ccccc24)NC(=O)[C@H](CCCCN)NC(=O)[C@H](Cc2cnc[nH]2)NC(=O)[C@H]([C@@H](C)O)NC(=O)[C@H](CCCNC(=N)N)NC(=O)[C@H](CO)NC3=O)NC(=O)[C@H](CCCCN)NC(=O)[C@H](CC(=O)O)NC(=O)[C@H](CC(N)=O)NC(=O)[C@H](CC(=O)O)NC(=O)[C@@H]2CCCN2C1=O", "note": "[compound 75] (H-DCLGFMRKCIPDNDKCCRPNLVCSRTHKWCKYVR-NH2; disulfide 2-17, 9-23, 16-30)", "values": [
      {"measurement": "IC50", "setting": "hNav1.7", "result": 3.58, "unit": "µM"},
      {"measurement": "IC50", "setting": "hNav1.5; use-dependent, […]", "result": 8.99, "unit": "µM"},
      {"measurement": "IC50", "setting": "hNav1.3; use-dependent, […]", "result": 4.69, "unit": "µM"}
    ]},
    {"smiles": "CC[C@H](C)[C@@H]1NC(=O)[C@@H]2CSSC[C@@H]3NC(=O)[C@H](C(C)C)NC(=O)[C@H](CC(C)C)NC(=O)[C@H](CC(N)=O)NC(=O)[C@@H]4CCCN4C(=O)[C@H](CCCNC(=N)N)NC(=O)[C@H](CSSC[C@H](NC(=O)[C@@H](N)CC(=O)O)C(=O)N[C@@H](CC(C)C)C(=O)NCC(=O)N[C@@H](Cc4ccccc4)C(=O)N[C@@H](CCSC)C(=O)N[C@@H](CCCNC(=N)N)C(=O)N[C@@H](CCCCN)C(=O)N2)NC(=O)[C@H](CSSC[C@@H](C(=O)N[C@@H](CCCCN)C(=O)N[C@@H](Cc2ccc(O)cc2)C(=O)N[C@H](C(=O)N[C@@H](Cc2ccccc2)C(=O)N[C@@H](CCCNC(=N)N)C(N)=O)C(C)C)NC(=O)[C@H](Cc2c[nH]c4ccccc24)NC(=O)[C@H](CCCCN)NC(=O)[C@H](Cc2cnc[nH]2)NC(=O)[C@H]([C@@H](C)O)NC(=O)[C@H](CCCNC(=N)N)NC(=O)[C@H](CO)NC3=O)NC(=O)[C@H](CCCCN)NC(=O)[C@H](CC(=O)O)NC(=O)[C@H](CC(N)=O)NC(=O)[C@H](CC(=O)O)NC(=O)[C@@H]2CCCN2C1=O", "note": "[compound 76]", "values": [
      {"measurement": "IC50", "setting": "hNav1.7; IonWorks Quattro, use-dependent, […], read-out: IWQ Use Nav1.7 (μm)", "result": 0.3, "unit": "µM"},
      {"measurement": "IC50", "setting": "hNav1.5; use-dependent, […]", "result": 9.73, "unit": "µM"},
      {"measurement": "IC50", "setting": "hNav1.3; use-dependent, […]", "result": 0.1, "unit": "µM"}
    ]},
    {"smiles": "CC[C@H](C)[C@@H]1NC(=O)[C@@H]2CSSC[C@@H]3NC(=O)[C@H](C(C)C)NC(=O)[C@H](CC(C)C)NC(=O)[C@H](CC(N)=O)NC(=O)[C@@H]4CCCN4C(=O)[C@H](CCCNC(=N)N)NC(=O)[C@H](CSSC[C@H](NC(=O)[C@@H](N)CC(=O)O)C(=O)N[C@@H](CC(C)C)C(=O)NCC(=O)N[C@@H](Cc4ccccc4)C(=O)N[C@@H](CCSC)C(=O)N[C@@H](CCCNC(=N)N)C(=O)N[C@@H](CCCCN)C(=O)N2)NC(=O)[C@H](CSSC[C@@H](C(=O)N[C@@H](CCCCN)C(=O)N[C@@H](Cc2ccc(O)cc2)C(=O)N[C@H](C(=O)N[C@@H](Cc2cccc4ccccc24)C(N)=O)C(C)C)NC(=O)[C@H](Cc2c[nH]c4ccccc24)NC(=O)[C@H](CCCCN)NC(=O)[C@H](Cc2cnc[nH]2)NC(=O)[C@H]([C@@H](C)O)NC(=O)[C@H](CCCNC(=N)N)NC(=O)[C@H](CO)NC3=O)NC(=O)[C@H](CCCCN)NC(=O)[C@H](CC(=O)O)NC(=O)[C@H](CC(N)=O)NC(=O)[C@H](CC(=O)O)NC(=O)[C@@H]2CCCN2C1=O", "note": "[compound 80] (H-DCLGFMRKCIPDNDKCCRPNLVCSRTHKWCKYV[1Nal]-NH2; disulfide 2-17, 9-23, 16-30)", "values": [
      {"measurement": "IC50", "setting": "hNav1.7; [2]", "result": 0.02, "unit": "µM"},
      {"measurement": "IC50", "setting": "hNav1.5; use-dependent, […]", "result": 10.2, "unit": "µM"},
      {"measurement": "IC50", "setting": "hNav1.3; use-dependent, […]", "result": 0.03, "unit": "µM"}
    ]},
    {"smiles": "CSCC[C@@H]1NC(=O)[C@H](Cc2ccccc2)NC(=O)CNC(=O)[C@H](CC(C)C)NC(=O)[C@@H](NC(=O)[C@@H](N)CC(=O)O)CSSC[C@@H]2NC(=O)[C@@H]3CSSC[C@@H](C(=O)N[C@@H](CCCCN)C(=O)N[C@@H](Cc4ccc(O)cc4)C(=O)N[C@H](C(=O)N[C@@H](Cc4ccccc4)C(N)=O)C(C)C)NC(=O)[C@H](Cc4c[nH]c5ccccc45)NC(=O)[C@H](CCCCN)NC(=O)[C@H](Cc4c[nH]cn4)NC(=O)[C@H]([C@@H](C)O)NC(=O)[C@H](CCCNC(=N)N)NC(=O)[C@H](CO)NC(=O)[C@H](CSSC[C@H](NC(=O)[C@H](CCCCN)NC(=O)[C@H](CCCNC(=N)N)NC1=O)C(=O)N[C@@H](Cc1c[nH]c4ccccc14)C(=O)N1CCC[C@H]1C(=O)N[C@@H](CC(=O)O)C(=O)N[C@@H](CC(N)=O)C(=O)N[C@@H](CC(=O)O)C(=O)N[C@@H](CCCCN)C(=O)N3)NC(=O)[C@H](C(C)C)NC(=O)[C@H](CC(C)C)NC(=O)[C@H](CC(N)=O)NC(=O)[C@@H]1CCCN1C(=O)[C@H](CCCNC(=N)N)NC2=O", "note": "[compound 83] (H-DCLGFMRKCWPDNDKCCRPNLVCSRTHKWCKYVF-NH2; disulfide 2-17, 9-23, 16-30)", "values": [
      {"measurement": "IC50", "setting": "hNav1.7; IonWorks Quattro, Use, read-out: IWQ Use Nav1.7", "result": 0.1, "unit": "µM"},
      {"measurement": "IC50", "setting": "hNav1.5; Use", "result": 8.02, "unit": "µM"},
      {"measurement": "IC50", "setting": "hNav1.3; Use", "result": 0.19, "unit": "µM"}
    ]},
    {"smiles": "CC[C@H](C)[C@@H]1NC(=O)[C@@H]2CSSC[C@@H]3NC(=O)[C@H](C(C)C)NC(=O)[C@H](CC(C)C)NC(=O)[C@H](CC(N)=O)NC(=O)[C@@H]4CCCN4C(=O)[C@H](CCCNC(=N)N)NC(=O)[C@H](CSSC[C@H](NC(=O)[C@@H](N)CC(=O)O)C(=O)N[C@@H](CC(C)C)C(=O)NCC(=O)N[C@@H](Cc4ccccc4)C(=O)N[C@@H](CCSC)C(=O)N[C@@H](CCCNC(=N)N)C(=O)N[C@@H](CCCCN)C(=O)N2)NC(=O)[C@H](CSSC[C@@H](C(=O)N[C@@H](CCCCN)C(=O)N[C@@H](Cc2c[nH]c4ccccc24)C(=O)N[C@H](C(=O)N[C@@H](Cc2ccccc2)C(N)=O)C(C)C)NC(=O)[C@H](Cc2c[nH]c4ccccc24)NC(=O)[C@H](CCCCN)NC(=O)[C@H](Cc2c[nH]cn2)NC(=O)[C@H]([C@@H](C)O)NC(=O)[C@H](CCCNC(=N)N)NC(=O)[C@H](CO)NC3=O)NC(=O)[C@H](CCCCN)NC(=O)[C@H](CC(=O)O)NC(=O)[C@H](CC(N)=O)NC(=O)[C@H](CC(=O)O)NC(=O)[C@@H]2CCCN2C1=O", "note": "[compound 85] (H-DCLGFMRKCIPDNDKCCRPNLVCSRTHKWCKWVF-NH2; disulfide 2-17, 9-23, 16-30)", "values": [
      {"measurement": "IC50", "setting": "hNav1.7; [1]", "result": 0.09, "unit": "µM"},
      {"measurement": "IC50", "setting": "hNav1.5; Table 25, use, […]", "result": 6.74, "unit": "µM"},
      {"measurement": "IC50", "setting": "hNav1.3; Table 25, use, […]", "result": 0.16, "unit": "µM"}
    ]},
    {"smiles": "CC[C@H](C)[C@@H]1NC(=O)[C@@H]2CSSC[C@@H]3NC(=O)[C@H](C(C)C)NC(=O)[C@H](CC(C)C)NC(=O)[C@H](CC(N)=O)NC(=O)[C@@H]4CCCN4C(=O)[C@H](CCCNC(=N)N)NC(=O)[C@H](CSSC[C@H](NC(=O)[C@@H](N)CC(=O)O)C(=O)N[C@@H](CC(C)C)C(=O)NCC(=O)N[C@@H](Cc4ccccc4)C(=O)N[C@@H](CCSC)C(=O)N[C@@H](CCCNC(=N)N)C(=O)N[C@@H](CCCCN)C(=O)N2)NC(=O)[C@H](CSSC[C@@H](C(=O)N[C@@H](CCCCN)C(=O)N[C@@H](Cc2ccc(O)cc2)C(=O)N[C@H](C(=O)N[C@@H](Cc2c[nH]c4ccccc24)C(N)=O)C(C)C)NC(=O)[C@H](Cc2c[nH]c4ccccc24)NC(=O)[C@H](CCCCN)NC(=O)[C@H](Cc2c[nH]cn2)NC(=O)[C@H]([C@@H](C)O)NC(=O)[C@H](CCCNC(=N)N)NC(=O)[C@H](CO)NC3=O)NC(=O)[C@H](CCCCN)NC(=O)[C@H](CC(=O)O)NC(=O)[C@H](CC(N)=O)NC(=O)[C@H](CC(=O)O)NC(=O)[C@@H]2CCCN2C1=O", "note": "[compound 86] (H-DCLGFMRKCIPDNDKCCRPNLVCSRTHKWCKYVW-NH2; disulfide 2-17, 9-23, 16-30)", "values": [
      {"measurement": "IC50", "setting": "hNav1.7; [2]", "result": 0.26, "unit": "µM"},
      {"measurement": "IC50", "setting": "hNav1.5; use-dependent, […]", "result": 10, "unit": "µM"},
      {"measurement": "IC50", "setting": "hNav1.3; use-dependent, […]", "result": 0.18, "unit": "µM"}
    ]}
  ]
}
